# What was measured:
# [1] = test system: SKOV-3 ovarian-cancer cells; set-up: method as in PMID 28390117; details: FACS analysis; cited from earlier work
# K-562 cells [2] = experiment: Resazurin cell viability assay; type: cell-based, human; details: 72 h
# Procedure: Cell viability was determined by a resazurin-based assay as described previously. Briefly, 5 × 10^3 cells/well were seeded into 96-well plates (Corning Inc., Corning, NY, USA) in 180 µL of RPMI 1640 medium and incubated overnight at 37 °C with 5% CO2. Next day, cells were treated with rilpivirine after serially diluted (1:2 dilution for final concentrations ranging from 0.625 µM to 40 µM) or DMSO (0.1%) for specified time periods (24, 48, or 72 h). At the end of the treatment period, 20 µL of resazurin (0.1 mg/mL in PBS) was added per well and incubated for further 4 h. Fluorescence intensities were recorded at 570 nm (excitation)/585 nm (emission) using an EnVision® multilabel plate reader (PerkinElmer, MA, USA). Drug concentrations required for cell viability reduction by 50% (GI50) compared with untreated (DMSO vehicle-treated only) control were determined by a non-linear regression model using GraphPad Prism software version 7.02 (La Jolla, CA, USA).
# K-562 cells [3] = experiment: Cell cycle analysis (PI, flow cytometry); type: cell-based, human
# Procedure: (§1) To determine the effect of rilpivirine on cell-cycle distribution a flow cytometry-based analysis was performed after staining the untreated and treated cells with propidium iodide (PI) solution [22]. Briefly, 6 × 10^4 cells/well were seeded in 3 mL of medium per well in 6-well plates. After overnight incubation at 37 °C in 5% CO2, the cells were incubated with the test compounds for specified time points. The medium-containing cells were then taken out from the wells and transferred to FACS tubes. Cells were then pelleted by centrifugation at 300 g for 5 min. Afterward, cells were fixed by using 70% (v/v) ice-cold ethanol for 15 min and then again pelleted by centrifugation (300 g for 5 min). Finally, the cells were incubated with 200 µL of PI staining solution (50 μg/mL PI, 0.1% sodium citrate, 0.1 mg/mL RNase A, and 0.1% Triton X-100) for 1.5 h at room temperature in the dark. After the incubation period, the cells were analysed using a CytoFLEX flow cytometer (Beckman Coulter Inc., Brea, CA, USA). CytExpert software version 2.1 was used for data analysis and graph preparation.
# NB4 cells = experiment: Cell cycle analysis (PI, flow cytometry); type: cell-based, human; details: 10 µM, 24 h
# Procedure: as §1
# U-937 cells = experiment: Cell cycle analysis (PI, flow cytometry); type: cell-based, human; details: 10 µM, 24 h
# Procedure: as §1
# Aurora A = test system: Aurora A; set-up: method as in PMID 36297298; details: cited from earlier work
# HL-60 cells = experiment: Resazurin cell viability assay; type: cell-based; details: Homo sapiens, HL-60, 72 h; read-out: 72-h GI50
# Procedure: Cell viability was determined by a resazurin-based assay as described previously. […] At the end of the treatment period, 20 µL of resazurin (0.1 mg/mL in PBS) was added per well and incubated for further 4 h.
# KG1 cells = test system: KG1 cells; set-up: method as in PMID 18056483; details: cited from earlier work
structure (smiles),measurement,setting,value
Nc1nc(NC2CC2)c2ncn([C@H]3C=C[C@@H](CO)C3)c2n1 [abacavir],cell-cycle phase arrest,[1],predominance of a G0/G1 phase arrest
N[C@@H]1CCCN(c2c(/C=C3\SC(=O)NC3=O)cccc2-c2ccccc2)C1 [AZD1208],GI50,K-562 cells [2],~38 µM
same,cell-cycle arrest,"K-562 cells [3]; 60 μM, 48 h",induced G1 arrest
Cc1cc(C#N)cc(C)c1Oc1nc(Nc2ccc(C#N)cc2)nc(N)c1Br [etravirine],G2/M phase arrest,"K-562 cells [3]; 10 µM, 24 h",failed to induce a G2/M phase arrest
same,G2/M phase arrest,NB4 cells,failed to induce a G2/M phase arrest
same,G2/M phase arrest,U-937 cells,failed to induce a G2/M phase arrest
same,Aurora A kinase inhibition,Aurora A,inability to inhibit Aurora A kinase
same,cell-cycle phase arrest,[1],predominance of a G0/G1 phase arrest
same,proportion of cells in the G2/M phase,[1],failed to increase the proportion of cells in the G2/M phase
Nc1ccn([C@@H]2O[C@H](CO)[C@@H](O)[C@@H]2O)c(=O)n1 [cytarabine],GI50,HL-60 cells,0.07 µM
CC(C)(C)n1nc(-c2ccc(Cl)cc2)c2c(N)ncnc21 [PP2],cell-cycle arrest,KG1 cells,induced G1 cell-cycle arrest
O=C1Nc2ccc(Cl)cc2[C@@](C#CC2CC2)(C(F)(F)F)O1 [efavirenz],cell-cycle phase arrest,[1],predominance of a G0/G1 phase arrest
CC(C)CN(C[C@@H](O)[C@H](Cc1ccccc1)NC(=O)O[C@H]1CO[C@H]2OCC[C@H]21)S(=O)(=O)c1ccc(N)cc1 [darunavir],cell-cycle phase arrest,[1],predominance of a G0/G1 phase arrest
C[C@H](Cn1cnc2c(N)ncnc21)OCP(=O)(O)O [tenofovir],cell-cycle phase arrest,[1],predominance of a G0/G1 phase arrest

# Source: article PMC9954146, “Anti-Leukaemic Activity of Rilpivirine Is Mediated by Aurora A Kinase Inhibition” (Cancers, 2023)
